pIC50: −log10 of the molar value. Several values for one entry are separate records, joined by “and”; a condition that tells them apart may be missing. Equal values may be shown once.

For the test, the target named is T1, GPR73 (prokineticin 1 receptor) (Homo sapiens, UniProt Q8TCW9).
T1 construct: expressed in transfected cells; host or cells: HEK 293
Briefly: PK1 functional assay: Ca2+ mobilization screening for PK1 antagonists on the FLIPR. It counts as cell-based. As to conditions: HEK 293 GPR73 cells, multiple values = multiple testing; for Ca^2+ Mobilization % Inh @ 10 μM: 10 μM compound; for inhibition at 10 µM: HEK293, 10 μM compound, read-out: Ca^2+ Mobilization % Inh @ 10 μM; for pIC50: PK1 ligand preparation at its EC50, read-out: Ca^2+ Mobilization IC50. In outline:
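HEK293 cells expressing human GPR73 were loaded with Calcium Plus dye, then on FLIPR given compound for 4 min 15 s before PK1 ligand at its predetermined EC50. Baseline-subtracted fluorescence over 1 min 45 s gave percent inhibition versus maximal signal; IC50 fitted.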

T1 sequence (Q8TCW9 whole entry, species assumed): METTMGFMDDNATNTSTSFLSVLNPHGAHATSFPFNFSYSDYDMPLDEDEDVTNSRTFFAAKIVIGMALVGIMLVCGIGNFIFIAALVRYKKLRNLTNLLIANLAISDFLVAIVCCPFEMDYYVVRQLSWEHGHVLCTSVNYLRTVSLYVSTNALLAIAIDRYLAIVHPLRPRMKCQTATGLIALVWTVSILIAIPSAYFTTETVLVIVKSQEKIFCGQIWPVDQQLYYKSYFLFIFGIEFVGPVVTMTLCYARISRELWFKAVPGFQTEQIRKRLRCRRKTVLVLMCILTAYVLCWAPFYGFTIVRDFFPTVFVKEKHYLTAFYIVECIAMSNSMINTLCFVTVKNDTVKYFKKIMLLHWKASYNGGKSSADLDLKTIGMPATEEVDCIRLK

`COc1ccc(Cn2c(CCc3cccnc3N)cc(=O)n(Cc3ccc(OC)cc3)c2=O)cc1` [Cpd 199, 6-[2-(2-Amino-pyridin-3-yl)-ethyl]-1,3-bis-(4-methoxy-benzyl)-1H-pyrimidine-2,4-dione]: the “Ca^2+ Mobilization % Inh @ 10 μM” value was 95%; the inhibition at 10 µM was 92%; the pIC50 was 6.77 and 6.16.
Consider `COc1ccc(Cn2c(=O)nc(NCc3cccnc3N)n(Cc3ccc(OC)cc3OC)c2=O)cc1` [Cpd 200], for which the inhibition at 10 µM came out at 87% and the pIC50 is 6.52.
Taken in the same sequence, the figures for `COc1ccc(Cn2c(NCc3cnccc3C)nc(=O)n(Cc3ccc(OC)cc3)c2=O)cc1` [Cpd 201] were 95% and 6.49.
For `COc1ccc(Cn2c(OCc3c(C)cc(C)nc3N)cc(=O)n(Cc3ccc(OC)cc3)c2=O)cc1` [Cpd 202], in that order: 70% and 6.08.
With `COc1ccc(Cn2c(=O)nc(NCc3cccnc3N)n(Cc3ccc(OC)c(F)c3)c2=O)cc1` [Cpd 203], the inhibition at 10 µM is 103% and the negative logarithm of the IC50 (pIC50) is 7.22.
For `COc1ccc(Cn2c(=O)nc(NCc3cnc(C)cc3C)n(Cc3ccc(OC)c(F)c3)c2=O)cc1` [Cpd 204], in that order: 102% and 7.17.
For `COc1ccc(Cn2c(=O)nc(NCc3cccnc3N)n(Cc3ccc(OC)cc3F)c2=O)cc1` [Cpd 205], in that order: 102% and 6.97.
For `COc1ccc(Cn2c(=O)nc(NCc3cnc(C)cc3C)n(Cc3ccc(OC)cc3F)c2=O)cc1` [Cpd 206], in that order: 102% and 7.34.
On to `COc1ccc(Cn2c(NCc3cnc(C)cc3C)nc(=O)n(Cc3ccc4c(c3)OCO4)c2=O)cc1` [Cpd 207], for which the “Ca^2+ Mobilization % Inh @ 10 μM” value is recorded as 93%; the inhibition at 10 µM came to 92%; the pIC50 was 6.34 and 6.33.
For `Cc1cc(C)c(CNc2nc(=O)n(Cc3ccc4c(c3)OCO4)c(=O)n2Cc2ccc(OC(F)F)cc2)cn1` [Cpd 208], the inhibition at 10 µM was determined as 73% and the pIC50 was 5.90.
On to `COc1ccc(Cn2c(NCc3cnc(C)cc3C)nc(=O)n(Cc3ccc4c(c3)OCCO4)c2=O)cc1` [Cpd 209], for which the inhibition at 10 µM came to 51% and the pIC50 was 5.11.
Taken in the same sequence, the figures for `Cc1cc(C)c(CNc2nc(=O)n(Cc3ccc4c(c3)OCCO4)c(=O)n2Cc2ccc(OC(F)F)cc2)cn1` [Cpd 210] were 39% and < 5.00.
For `COc1ccc(Cn2c(SCc3cccnc3)cc(=O)n(Cc3ccc(OC)cc3)c2=O)cc1` [Cpd 211, 1,3-Bis-(4-methoxy-benzyl)-6-(pyridin-3-ylmethylsulfanyl)-1H-pyrimidine-2,4-dione], in that order: 52% and 5.34.
For the compound `COc1ccc(Cn2c(=O)nc(NCc3c(C)cc(C)nc3N)n(Cc3ccc4c(c3)CC(C)O4)c2=O)cc1` (centres unmarked) [Cpd 212], the “Ca^2+ Mobilization % Inh @ 10 μM” value was found to be 99%; the inhibition at 10 µM is 103%; the negative logarithm of the IC50 (pIC50) is 7.68 and 7.30.
For `COc1ccc(Cn2c(NCc3c(C)cc(C)nc3N3CCCCC3)nc(=O)n(Cc3ccc(OC)cc3)c2=O)cc1` [Cpd 213], the inhibition at 10 µM was found to be 45% and the pIC50 is < 5.00.
Consider `COc1ccc(Cn2c(CCc3cnccc3N)cc(=O)n(Cc3ccc(OC)cc3)c2=O)cc1` [Cpd 214], for which the inhibition at 10 µM is 53% and the negative-log IC50 (pIC50) is 5.15.
As for `COc1ccc(Cn2c(NCCc3ccncc3)nc(=O)n(Cc3ccc(OC)cc3)c2=O)cc1` [Cpd 215], the “Ca^2+ Mobilization % Inh @ 10 μM” value is 104% and 68%; the negative-log IC50 (pIC50) was 6.30 and 5.56.
For `COc1ccc(Cn2c(NCc3cnc(C)cc3C)nc(=O)n(Cc3ccc4c(c3)nnn4C)c2=O)cc1` [Cpd 216], the inhibition at 10 µM came out at 80% and the negative-log IC50 (pIC50) is 5.97.
Turning to `COc1ccc(Cn2c(NCc3cnc(C)cc3C)nc(=O)n(Cc3ccc4snnc4c3)c2=O)cc1` [Cpd 217], the inhibition at 10 µM is 81% and the negative logarithm of the IC50 (pIC50) is 6.00.
For `COc1ccc(Cn2c(NCc3cnc(C)cc3C)nc(=O)n(Cc3ccc(OC)c(F)c3)c2=O)cc1` [Cpd 218], in that order: 94% and 6.98.
As to `Cc1cc(C)c(CNc2nc(=O)n(Cc3ccc4c(c3)OCO4)c(=O)n2Cc2ccc(OC(F)F)cc2)c(N)n1` [Cpd 219], the “Ca^2+ Mobilization % Inh @ 10 μM” value is listed as 97%; the inhibition at 10 µM stood at 94%; the pIC50 is 6.87 and 6.80.
For the compound `COc1ccc(Cn2c(NCc3c(C)cc(C)nc3N)nc(=O)n(Cc3ccc4c(c3)OCO4)c2=O)cc1` [Cpd 220], the inhibition at 10 µM was found to be 98% and the negative logarithm of the IC50 (pIC50) was 7.37.
As for `Cc1cc(C)c(CNc2nc(=O)n(Cc3ccc4c(c3)nnn4C)c(=O)n2Cc2ccc(OC(F)F)cc2)c(N)n1` [Cpd 221], the “Ca^2+ Mobilization % Inh @ 10 μM” value is listed as 96%; the inhibition at 10 µM was 98%; the pIC50 is 7.35 and 7.14.
As for `COc1ccc(Cn2c(NCc3c(C)cc(C)nc3N)nc(=O)n(Cc3ccc4c(c3)nnn4C)c2=O)cc1` [Cpd 222, 6-[(2-Amino-4,6-dimethyl-pyridin-3-ylmethyl)-amino]-1-(4-methoxy-benzyl)-3-(1-methyl-1H-benzotriazol-5-ylmethyl)-1H-[1,3,5]triazine-2,4-dione], the inhibition at 10 µM was found to be 98% and the pIC50 was 7.22.
Take `COc1ccc(Cn2c(CCc3cccc(N)n3)cc(=O)n(Cc3ccc(OC)cc3)c2=O)cc1` [Cpd 223, 6-[2-(6-Amino-pyridin-2-yl)-ethyl]-1,3-bis-(4-methoxy-benzyl)-1H-pyrimidine-2,4-dione]: the inhibition at 10 µM worked out at 53% and the negative logarithm of the IC50 (pIC50) is 5.25.
Consider `COCCCCCn1c(NCc2c(C)cc(C)nc2N)nc(=O)n(Cc2ccc(OC)cc2)c1=O` [Cpd 224, 6-[(2-Amino-4,6-dimethyl-pyridin-3-ylmethyl)-amino]-3-(4-methoxy-benzyl)-1-(5-methoxy-pentyl)-1H-[1,3,5]triazine-2,4-dione], for which the inhibition at 10 µM was found to be 97%; the pIC50 was 8.15 and 7.96.
As for `COc1ccc(Cn2c(OC(C)c3ccnc(N)c3)cc(=O)n(Cc3ccc(OC)cc3)c2=O)cc1` (centres unmarked) [Cpd 225], the inhibition at 10 µM is 68% and the pIC50 was 5.42.
Taken in the same sequence, the figures for `Cc1cc(C)[n+]([O-])c(N)c1CNc1nc(=O)n(Cc2ccc3c(c2)CCO3)c(=O)n1Cc1ccc2c(c1)CCO2` [Cpd 226, 6-[(2-Amino-4,6-dimethyl-1-oxy-pyridin-3-ylmethyl)-amino]-1,3-bis-(2,3-dihydro-benzofuran-5-ylmethyl)-1H-[1,3,5]triazine-2,4-dione] were 85% and 6.04.
Regarding `Cc1cc(C)c(CNc2nc(=O)n(Cc3ccc4[nH]ccc4c3)c(=O)n2Cc2ccc(OC(F)F)cc2)cn1` [Cpd 227], the inhibition at 10 µM was 44% and the pIC50 is < 5.00.
With `Nc1ncccc1CNc1nc(=O)n(Cc2ccc3[nH]ccc3c2)c(=O)n1Cc1ccc(OC(F)F)cc1` [Cpd 228], the inhibition at 10 µM was 63% and the pIC50 is 5.47.
Taken in the same sequence, the figures for `COc1ccc(Cn2c(NCc3cnc(C)cc3C)nc(=O)n(Cc3ccc4[nH]ccc4c3)c2=O)cc1` [Cpd 229] were 41% and < 5.00.
Taken in the same sequence, the figures for `COc1ccc(Cn2c(NCc3cccnc3N)nc(=O)n(Cc3ccc4[nH]ccc4c3)c2=O)cc1` [Cpd 230] were 66% and 5.56.
Taken in the same sequence, the figures for `COc1ccc(Cn2c(NCc3cccnc3N)nc(=O)n(Cc3ccc(Cl)cc3)c2=O)cc1` [Cpd 231] were 89% and 6.61.
For `COc1ccc(Cn2c(OCc3ccnc(N)n3)cc(=O)n(Cc3ccc(OC)cc3)c2=O)cc1` [Cpd 232], the inhibition at 10 µM is 33% and the pIC50 is < 5.00.
As to `Cc1cc(C)[n+]([O-])c(N)c1CNc1nc(=O)n(Cc2ccc3c(c2)CCO3)c(=O)n1Cc1ccc(OC(F)F)cc1` [Cpd 233, 6-[(2-Amino-4,6-dimethyl-1-oxy-pyridin-3-ylmethyl)-amino]-1-(4-difluoromethoxy-benzyl)-3-(2,3-dihydro-benzofuran-5-ylmethyl)-1H-[1,3,5]triazine-2,4-dione], the “Ca^2+ Mobilization % Inh @ 10 μM” value amounted to 97%; the inhibition at 10 µM stood at 96%; the pIC50 was 7.16 and 6.89.
Consider `COc1ccc(Cn2c(NC(C)c3ccccn3)nc(=O)n(Cc3ccc(OC)cc3)c2=O)cc1` (centres unmarked) [Cpd 234], for which the inhibition at 10 µM was determined as 66% and the pIC50 is 5.59.
For the compound `COc1ccc(Cn2c(NCc3ccc(C(F)(F)F)cn3)nc(=O)n(Cc3ccc(OC)cc3)c2=O)cc1` [Cpd 235], the inhibition at 10 µM was 98% and the pIC50 was 7.07.
In the case of `COc1ccc(Cn2c(NCc3ncccc3C(F)(F)F)nc(=O)n(Cc3ccc(OC)cc3)c2=O)cc1` [Cpd 236], the inhibition at 10 µM was determined as 64% and the pIC50 was 5.90.
Taken in the same sequence, the figures for `COc1ccc(Cn2c(NCc3cc(C(F)(F)F)ccn3)nc(=O)n(Cc3ccc(OC)cc3)c2=O)cc1` [Cpd 237] were 69% and 5.77.
Take `Nc1ncccc1CNc1nc(=O)n(Cc2ccc3snnc3c2)c(=O)n1Cc1ccc2c(c1)CCO2` [Cpd 242]: the inhibition at 10 µM is 95% and the pIC50 is 6.60.
As for `Cc1cc(C)c(CNc2nc(=O)n(Cc3ccc4snnc4c3)c(=O)n2Cc2ccc3c(c2)CCO3)cn1` [Cpd 243], the inhibition at 10 µM is 75% and the negative logarithm of the IC50 (pIC50) is 6.04.
As for `Cn1nnc2cc(Cn3c(=O)nc(NCc4cccnc4N)n(Cc4ccc5c(c4)CCO5)c3=O)ccc21` [Cpd 244], the inhibition at 10 µM turned out to be 94% and the pIC50 is 6.92.
Taken in the same sequence, the figures for `Cc1cc(C)c(CNc2nc(=O)n(Cc3ccc4c(c3)nnn4C)c(=O)n2Cc2ccc3c(c2)CCO3)cn1` [Cpd 245] were 45% and < 5.00.
